In patent US8236354B1, “Use of immunomodulators for the treatment of cancer” (ZOR Pharmaceuticals, LLC, priority 2012, dated 2012):

Tests used:
[1] = tested on: advanced pancreatic cancer; details: cited from earlier work; for median Overall Survival: survival from study enrollment to death from any cause
[2] = tested on: advanced (unresectable or metastatic) pancreatic adenocarcinoma; assay: Phase 3 double-blind, randomized, placebo-controlled 3-stage trial: survival and time to symptom progression; type: in vivo, human
Description: This was a double-blind, multicenter, randomized, 2-arm, parallel group, 3-stage trial. Median survival was the primary end-point calculated from Kaplan-Meier plots of survival of the Intention to Treat data set.
The blood pharmacokinetic profiles of gemcitabine and VIRULIZIN® were assessed by an independent (unblinded) pharmacokinetics assessor. Stage 1 was performed at selected sites. Immune stimulation assays were also to be performed in these patients.
The decision to discontinue patients from Stage 2 and move them into Stage 3 and to continue or discontinue study treatment was at the discretion of the investigator.
However, if the investigator believed further chemotherapy was not in the best interest of the patient (based on hematological profile, symptom progression or no evidence of clinical benefit), the patient continued to receive best supportive care, with or without continued injections of VIRULIZIN® or placebo. The first 18 patients entering Stage 3 and receiving VIRULIZIN® or placebo plus intravenous infusions of 5-FU were to have blood samples taken to assess the pre- and post-dose plasma concentrations of 5-FU.
Male or female patients, aged 18 years or older, with advanced (unresectable or metastatic) pancreatic adenocarcinoma (tumor staging definition—tumor, lymph nodes, metastasis [TNM] stages II, III or IV) who had not received previous systemic chemotherapy, who had Eastern Cooperative Oncology Group (ECOG) Score 0, 1 or 2, and life expectancy greater than or equal to 12 weeks were included in the study.
(§1) VIRULIZIN® or placebo was administered as intramuscular injections of 3 mL with dosing 3 times weekly (Monday, Wednesday, Friday) in Stages 1, 2 and 3.
(§2) Following pain stabilization screening, all randomized patients in Stages 1 and 2 received 30-minute intravenous infusions of gemcitabine at a dose of 1 g/m2 weekly for the first 7 weeks, followed by a week of rest. Subsequent cycles consisted of 28-day cycles with gemcitabine dosing on days 1, 8 and 15. Guidelines for dose reduction in case of toxicity were provided from the Official Product Prescribing Guidelines. Dosing continued until intolerance to gemcitabine developed, or there was symptom progression, or no evidence of clinical benefit. […] The patient's physician made the decision concerning 5-FU chemotherapy or best supportive care.
Efficacy was evaluated based upon survival time, defined as the time from Baseline/Treatment Day 1 to the time of death from any cause. Time to progression of symptoms, consisting of: time to increase in pain (with consideration of analgesic consumption), time to deterioration in ECOG score, and time to weight loss.

[3] = in vivo
Description: as §1, §2
Safety was evaluated based upon adverse events (AEs), laboratory tests, and vital signs.

[4] = ECOG 0 or 1, treated in Stage 3, of 25 (VIRULIZIN plus 5-FU) / of 16 (placebo plus 5-FU) patients
[5] = Efficacy evaluable, ECOG 0 or 1, value (95% CI)
[6] = Efficacy evaluable, Overall, value (95% CI)
[7] = Intention to Treat, ECOG 0 or 1, value (95% CI)
[8] = Intention to Treat, Metastatic, value (95% CI)
[9] = Intention to Treat, Overall, value (95% CI)

Question: For `O=c1[nH]cc(F)c(=O)[nH]1` [5-FU, 5-fluorouracil], which “median Overall Survival” value [1] is on record?
Answer: 4.2 months

Question: With `O=c1[nH]cc(F)c(=O)[nH]1` [Placebo plus 5-FU, 5-fluorouracil] as the molecule, how does the “number of patients alive (censored) at the end of the study data collection period” value [2, 4] read?
Answer: None

Question: What about the “percent of patients alive (censored) at the end of the study data collection period” value [2, 4] of the same molecule?
Answer: 0%

Question: And the “Median survival time from entry into study Stage 3 to death from any cause” value ([2]; Intention to Treat, Stage 3 test product plus 5-FU, ECOG 0 or 1)?
Answer: 2.94 months

Question: And the “Median survival time from entry into study Stage 3 to death from any cause” value ([2]; Intention to Treat, Stage 3 test product plus 5-FU, ECOG 2)?
Answer: 3.42 months

Question: What about the “Median survival time from entry into study Stage 3 to death from any cause” value ([2]; Intention to Treat, Stage 3 test product plus 5-FU, ECOG 2, listed as placebo plus 5-FU) of the same molecule?
Answer: 3.43 months

Question: And the “Median survival time from entry into study Stage 3 to death from any cause” value ([2]; Intention to Treat, Stage 3 test product plus 5-FU, Overall)?
Answer: 3.22 months

Question: Which results are given for `Nc1ccn([C@@H]2O[C@H](CO)[C@@H](O)C2(F)F)c(=O)n1` [Placebo plus gemcitabine, gemcitabine]?
Answer: Median survival time, study enrollment to death from any cause [2, 5]: 6.3 (5.0 to 7.2) months; Percent 12-Month Survival [2, 5]: 20.1 (12.8 to 27.4) %; Median survival time, study enrollment to death from any cause ([2]; Efficacy evaluable, ECOG 2, value (95% CI)): 5.5 (4.3 to 7.4) months; Median survival time, study enrollment to death from any cause ([2]; Efficacy evaluable, Locally advanced disease, value (95% CI)): 8.1 (7.1 to 11.2) months; Median survival time, study enrollment to death from any cause ([2]; Efficacy evaluable, Metastatic disease, value (95% CI)): 5.0 (4.3 to 6.0) months; Percent 12-Month Survival ([2]; Efficacy evaluable, Metastatic, value (95% CI)): 10.9 (5.4 to 16.4) %; Median survival time, study enrollment to death from any cause [2, 6]: 6.0 (5.1 to 7.0) months; Percent 12-Month Survival [2, 6]: 16.9 (11.2 to 22.6) %; Median survival time, study enrollment to death from any cause ([2]; Efficacy evaluable, Patients participating in study Stage 3, value (95% CI)): 7.4 (6.8 to 8.6) months; median duration of participation in study Stages 1 and/or 2 ([2]; FIG. 5, 248 Intention to Treat patients who participated in study Stage 3): 6.31 months; median duration of participation in study Stages 1 and/or 2 ([2]; FIG. 6, Stage 3 participants, High ECOG score of 2): 6.31 months; median duration of participation in study Stages 1 and/or 2 ([2]; FIG. 6, Stage 3 participants, Low ECOG score of 0 or 1): 7.13 months; Median survival time from study enrollment to death from any cause [2, 7]: 6.4 (5.0 to 7.3) months; Percent 12-Month Survival [2, 7]: 21.1 (14.3 to 28.0) %; Median survival time from study enrollment to death from any cause ([2]; Intention to Treat, ECOG 0 or 1, value (95% CI), listed as placebo and gemcitabine): 6.4 months; Median survival time from study enrollment to death from any cause ([2]; Intention to Treat, ECOG 0 or 1, value (95% CI), listed as placebo plus gemcitabine): 6.4 months; Median survival time from study enrollment to death from any cause ([2]; Intention to Treat, ECOG 2, value (95% CI)): 5.1 (4.1 to 6.8) months; Median survival time from study enrollment to death from any cause ([2]; Intention to Treat, ECOG 2, value (95% CI), listed as placebo and gemcitabine): 5.1 months; Median survival time from study enrollment to death from any cause ([2]; Intention to Treat, ECOG 2, value (95% CI), listed as placebo plus gemcitabine): 6.4 months; time to progression of pain from time of randomization ([2]; Intention to Treat, ECOG score of 0 or 1): 9.0 mo; Median survival time from study enrollment to death from any cause ([2]; Intention to Treat, Locally advanced, value (95% CI)): 8.4 (7.1 to 11.2) months; Median survival time from study enrollment to death from any cause [2, 8]: 5.0 (4.3 to 6.0) months; Percent 12-Month Survival [2, 8]: 13.3 (8.0 to 18.6) %; Median survival time from study enrollment to death from any cause [2, 9]: 6.0 (5.1 to 7.0) months; Percent 12-Month Survival [2, 9]: 17.7 (12.3 to 23.0) %; Median survival time from study enrollment to death from any cause ([2]; Intention to Treat, Overall, value (95% CI), listed as placebo plus gemcitabine): 6.0 months; Median survival time from study enrollment to death from any cause ([2]; Intention to Treat, Patients participating in study Stage 3, value (95% CI)): 7.5 (6.8 to 9.4) months; Median survival time from study enrollment to death from any cause ([2]; Intention to Treat, Patients participating in study Stage 3, value (95% CI), listed as placebo plus gemcitabine): 7.5 months; Median survival time from entry into study Stage 3 to death from any cause ([2]; Intention to Treat, Stage 3 test product with or without 5-FU, ECOG 0 or 1): 3.19 months; Median survival time from entry into study Stage 3 to death from any cause ([2]; Intention to Treat, Stage 3 test product with or without 5-FU, ECOG 2): 2.79 months; Median survival time from entry into study Stage 3 to death from any cause ([2]; Intention to Treat, Stage 3 test product with or without 5-FU, Overall): 2.96 months; Median survival time from study enrollment to death from any cause ([2]; Intention to Treat, patients participating in study Stage 3, ECOG 0 or 1): 7.13 months; Median survival time from study enrollment to death from any cause ([2]; Intention to Treat, patients participating in study Stage 3, ECOG 2): 6.31 months; Abdominal pain (not otherwise specified): (%) of Patients [3]: (26.2) %; Abdominal pain (not otherwise specified): Number of Events [3]: 96; Abdominal pain (not otherwise specified): Number of Patients [3]: 56; Abdominal pain upper: (%) of Patients [3]: (11.7) %; Abdominal pain upper: Number of Events [3]: 35; Abdominal pain upper: Number of Patients [3]: 25; Alanine aminotransferase increased: (%) of Patients [3]: (7.0) %; Alanine aminotransferase increased: Number of Events [3]: 21; Alanine aminotransferase increased: Number of Patients [3]: 15; Anemia (not otherwise specified): (%) of Patients [3]: (43.9) %; Anemia (not otherwise specified): Number of Events [3]: 206; Anemia (not otherwise specified): Number of Patients [3]: 94; Anorexia: (%) of Patients [3]: (23.8) %; Anorexia: Number of Events [3]: 71; Anorexia: Number of Patients [3]: 51; Ascites: (%) of Patients [3]: (17.8) %; Ascites: Number of Events [3]: 51; Ascites: Number of Patients [3]: 38; Aspartate aminotransferase increased: (%) of Patients [3]: (8.9) %; Aspartate aminotransferase increased: Number of Events [3]: 27; Aspartate aminotransferase increased: Number of Patients [3]: 19; Back pain: (%) of Patients [3]: (9.8) %; Back pain: Number of Events [3]: 30; Back pain: Number of Patients [3]: 21; Blood alkaline phosphatase increased (not otherwise specified): (%) of Patients [3]: (9.8) %; Blood alkaline phosphatase increased (not otherwise specified): Number of Events [3]: 28; Blood alkaline phosphatase increased (not otherwise specified): Number of Patients [3]: 21; Constipation: (%) of Patients [3]: (18.7) %; Constipation: Number of Events [3]: 57; Constipation: Number of Patients [3]: 40; Dehydration: (%) of Patients [3]: (8.9) %; Dehydration: Number of Events [3]: 26; Dehydration: Number of Patients [3]: 19; Diarrhea (not otherwise specified): (%) of Patients [3]: (21.5) %; Diarrhea (not otherwise specified): Number of Events [3]: 79; Diarrhea (not otherwise specified): Number of Patients [3]: 46; Disease progression (not otherwise specified): (%) of Patients [3]: (11.7) %; Disease progression (not otherwise specified): Number of Events [3]: 25; Disease progression (not otherwise specified): Number of Patients [3]: 25; Dyspnea (not otherwise specified): (%) of Patients [3]: (15.4) %; Dyspnea (not otherwise specified): Number of Events [3]: 46; Dyspnea (not otherwise specified): Number of Patients [3]: 33; Edema peripheral: (%) of Patients [3]: (24.3) %; Edema peripheral: Number of Events [3]: 76; Edema peripheral: Number of Patients [3]: 52; Fatigue: (%) of Patients [3]: (36.0) %; Fatigue: Number of Events [3]: 178; Fatigue: Number of Patients [3]: 77; Headache (not otherwise specified): (%) of Patients [3]: (6.5) %; Headache (not otherwise specified): Number of Events [3]: 42; Headache (not otherwise specified): Number of Patients [3]: 14; Jaundice (not otherwise specified): (%) of Patients [3]: (11.7) %; Jaundice (not otherwise specified): Number of Events [3]: 30; Jaundice (not otherwise specified): Number of Patients [3]: 25; Leukopenia (not otherwise specified): (%) of Patients [3]: (13.6) %; Leukopenia (not otherwise specified): Number of Events [3]: 67; Leukopenia (not otherwise specified): Number of Patients [3]: 29; Nausea: (%) of Patients [3]: (42.1) %; Nausea: Number of Events [3]: 269; Nausea: Number of Patients [3]: 90; Neutropenia: (%) of Patients [3]: (32.2) %; Neutropenia: Number of Events [3]: 212; Neutropenia: Number of Patients [3]: 69; Pyrexia: (%) of Patients [3]: (30.4) %; Pyrexia: Number of Events [3]: 184; Pyrexia: Number of Patients [3]: 65; Rash (not otherwise specified): (%) of Patients [3]: (9.3) %; Rash (not otherwise specified): Number of Events [3]: 26; Rash (not otherwise specified): Number of Patients [3]: 20; Rigors: (%) of Patients [3]: (15.4) %; Rigors: Number of Events [3]: 97; Rigors: Number of Patients [3]: 33; Thrombocytopenia: (%) of Patients [3]: (29.9) %; Thrombocytopenia: Number of Events [3]: 196; Thrombocytopenia: Number of Patients [3]: 64; Vomiting (not otherwise specified): (%) of Patients [3]: (29.4) %; Vomiting (not otherwise specified): Number of Events [3]: 141; Vomiting (not otherwise specified): Number of Patients [3]: 63; Weakness: (%) of Patients [3]: (23.8) %; Weakness: Number of Events [3]: 82; Weakness: Number of Patients [3]: 51; Weight decreased: (%) of Patients [3]: (12.1) %; Weight decreased: Number of Events [3]: 38; Weight decreased: Number of Patients [3]: 26

Question: For `Nc1ccn([C@@H]2O[C@H](CO)[C@@H](O)C2(F)F)c(=O)n1` [gemcitabine], which “increased median survival versus 5-FU” value ([1]; in vivo) is on record?
Answer: 1.5 months

Question: What about the “median Overall Survival” value [1] of the same molecule?
Answer: 5.7 months
